From ChEMBL document CHEMBL3885881, “DrugMatrix”

Organism: Rattus norvegicus
Assay: DrugMatrix - Regimen: Daily Repeat
Assay type: toxicity, organism-based, Sprague-Dawley
Set-up: regimen Daily Repeat, gender Male, age 6-8 weeks
Conditions: in vivo, po, route oral GAVAGE, vehicle .5 % CMC; for ABSOLUTE BASOPHIL / ABSOLUTE EOSINOPHIL / ABSOLUTE LYMPHOCYTE / ABSOLUTE MONOCYTE / ABSOLUTE SEGMENTED NEUTROPHIL / BASOPHIL / EOSINOPHIL / ERYTHROCYTE COUNT / HEMATOCRIT / HEMOGLOBIN / LEUKOCYTE COUNT / LYMPHOCYTE / MEAN CORPUSCULAR HEMOGLOBIN / MEAN CORPUSCULAR HEMOGLOBIN CONCENTRATION / MEAN CORPUSCULAR VOLUME / MONOCYTE / NEUTROPHIL / NUCLEATED RED BLOOD CELLS / PLATELET COUNT: tissue Blood; for ALANINE AMINOTRANSFERASE / ALBUMIN / ALKALINE PHOSPHATASE / ASPARTATE AMINOTRANSFERASE / BLOOD UREA NITROGEN / CARBON DIOXIDE / CHLORIDE / CHOLESTEROL / CREATINE PHOSPHOKINASE / CREATININE / GLUCOSE / LACTATE DEHYDROGENASE / LIPASE / PHOSPHORUS / POTASSIUM / SODIUM / TOTAL BILIRUBIN / TOTAL PROTEIN / URIC ACID: tissue Plasma
[1] = 15 mg/kg, 120 h, dose level Low, time 5 day
[2] = 1500 mg/kg, 72 h, dose level High, time 3 day
[3] = 1500 mg/kg, 120 h, dose level High, time 5 day

Which “ABSOLUTE BASOPHIL” value [1] does the source give for `COC(=O)c1ccc(O)cc1` [METHYLPARABEN] here?
Its value is 0 CELLS/uL.

And the “ABSOLUTE EOSINOPHIL” value [1]?
Its value is 60.67 CELLS/uL.

What about the “ABSOLUTE LYMPHOCYTE” value [1] of the same molecule?
Its value is 12673.33 CELLS/uL.

And the “ABSOLUTE MONOCYTE” value [1]?
The value was 0 CELLS/uL.

What about the “ABSOLUTE SEGMENTED NEUTROPHIL” value [1] of the same molecule?
The value was 1232.67 CELLS/uL.

And the BASOPHIL [1]?
Its BASOPHIL is 0%.

And the EOSINOPHIL [1]?
The EOSINOPHIL was 0.33%.

What about the “ERYTHROCYTE COUNT” value [1] of the same molecule?
Its value is 5.42 x10E6/uL.

What about the HEMATOCRIT [1] of the same molecule?
The HEMATOCRIT was 34.93%.

And the HEMOGLOBIN [1]?
Its HEMOGLOBIN is 13.97 G/DL.

And the “LEUKOCYTE COUNT” value [1]?
The value was 13.97 x10E3/uL.

What about the LYMPHOCYTE [1] of the same molecule?
Its LYMPHOCYTE is 91%.

What about the “MEAN CORPUSCULAR HEMOGLOBIN” value [1] of the same molecule?
The value was 25.8 pg.

And the “MEAN CORPUSCULAR HEMOGLOBIN CONCENTRATION” value [1]?
Its value is 40 G/DL.

And the “MEAN CORPUSCULAR VOLUME” value [1]?
The value was 64.4 fL.

And the MONOCYTE [1]?
Its MONOCYTE is 0%.

And the NEUTROPHIL [1]?
Its NEUTROPHIL is 8.67%.

What about the “NUCLEATED RED BLOOD CELLS” value [1] of the same molecule?
Its value is 0 /100WBC.

And the “PLATELET COUNT” value [1]?
The value was 1233.67 x10E3/uL.

And the “ALANINE AMINOTRANSFERASE” value [1]?
The value was 58.67 u/L.

And the ALBUMIN [1]?
The ALBUMIN was 3.9 G/DL.

And the “ALKALINE PHOSPHATASE” value [1]?
The value was 392.67 u/L.

And the “ASPARTATE AMINOTRANSFERASE” value [1]?
Its value is 87.33 u/L.

What about the “BLOOD UREA NITROGEN” value [1] of the same molecule?
The value was 17.67 mg/dL.

And the “CARBON DIOXIDE” value [1]?
The value was 26 mmol/L.

What about the CHLORIDE [1] of the same molecule?
Its CHLORIDE is 101.67 MEQ/L.

What about the CHOLESTEROL [1] of the same molecule?
The CHOLESTEROL was 65.33 mg/dL.

What about the “CREATINE PHOSPHOKINASE” value [1] of the same molecule?
The value was 524 u/L.

And the CREATININE [1]?
The CREATININE was 0.12 mg/dL.

What about the GLUCOSE [1] of the same molecule?
The GLUCOSE was 151 mg/dL.

What about the “LACTATE DEHYDROGENASE” value [1] of the same molecule?
The value was 137.67 u/L.

And the LIPASE [1]?
Its LIPASE is 9.33 u/L.

And the PHOSPHORUS [1]?
The PHOSPHORUS was 14.13 mg/dL.

What about the POTASSIUM [1] of the same molecule?
The POTASSIUM was 6.95 MEQ/L.

What about the SODIUM [1] of the same molecule?
Its SODIUM is 142.07 MEQ/L.

What about the “TOTAL BILIRUBIN” value [1] of the same molecule?
The value was 0.23 mg/dL.

What about the “TOTAL PROTEIN” value [1] of the same molecule?
The value was 5.7 G/DL.

And the “URIC ACID” value [1]?
Its value is 1.93 mg/dL.

What about the “ABSOLUTE BASOPHIL” value [2] of the same molecule?
The value was 0 CELLS/uL.

What about the “ABSOLUTE EOSINOPHIL” value [2] of the same molecule?
Its value is 0 CELLS/uL.

And the “ABSOLUTE LYMPHOCYTE” value [2]?
The value was 15298 CELLS/uL.

And the “ABSOLUTE MONOCYTE” value [2]?
The value was 225.33 CELLS/uL.

And the “ABSOLUTE SEGMENTED NEUTROPHIL” value [2]?
Its value is 3076.67 CELLS/uL.

And the BASOPHIL [2]?
The BASOPHIL was 0%.

What about the EOSINOPHIL [2] of the same molecule?
The EOSINOPHIL was 0%.

What about the “ERYTHROCYTE COUNT” value [2] of the same molecule?
Its value is 5.36 x10E6/uL.

And the HEMATOCRIT [2]?
Its HEMATOCRIT is 33.07%.

And the HEMOGLOBIN [2]?
The HEMOGLOBIN was 13.37 G/DL.

What about the “LEUKOCYTE COUNT” value [2] of the same molecule?
The value was 18.6 x10E3/uL.

What about the LYMPHOCYTE [2] of the same molecule?
Its LYMPHOCYTE is 82.67%.

And the “MEAN CORPUSCULAR HEMOGLOBIN” value [2]?
Its value is 25.03 pg.

What about the “MEAN CORPUSCULAR HEMOGLOBIN CONCENTRATION” value [2] of the same molecule?
The value was 40.47 G/DL.

What about the “MEAN CORPUSCULAR VOLUME” value [2] of the same molecule?
Its value is 61.8 fL.

And the MONOCYTE [2]?
Its MONOCYTE is 1.33%.

And the NEUTROPHIL [2]?
The NEUTROPHIL was 16%.

What about the “NUCLEATED RED BLOOD CELLS” value [2] of the same molecule?
Its value is 0 /100WBC.

And the “PLATELET COUNT” value [2]?
Its value is 1154.33 x10E3/uL.

What about the “ALANINE AMINOTRANSFERASE” value [2] of the same molecule?
The value was 60 u/L.

And the ALBUMIN [2]?
The ALBUMIN was 4.03 G/DL.

And the “ALKALINE PHOSPHATASE” value [2]?
Its value is 433.33 u/L.

What about the “ASPARTATE AMINOTRANSFERASE” value [2] of the same molecule?
Its value is 87 u/L.

And the “BLOOD UREA NITROGEN” value [2]?
The value was 18 mg/dL.

What about the “CARBON DIOXIDE” value [2] of the same molecule?
Its value is 30.33 mmol/L.

And the CHLORIDE [2]?
Its CHLORIDE is 95.67 MEQ/L.

And the CHOLESTEROL [2]?
The CHOLESTEROL was 67.67 mg/dL.

What about the “CREATINE PHOSPHOKINASE” value [2] of the same molecule?
Its value is 211.67 u/L.

What about the CREATININE [2] of the same molecule?
Its CREATININE is 0.15 mg/dL.

What about the GLUCOSE [2] of the same molecule?
Its GLUCOSE is 165.67 mg/dL.

And the “LACTATE DEHYDROGENASE” value [2]?
Its value is 122 u/L.

What about the LIPASE [2] of the same molecule?
The LIPASE was 9 u/L.

What about the PHOSPHORUS [2] of the same molecule?
The PHOSPHORUS was 12.87 mg/dL.

What about the POTASSIUM [2] of the same molecule?
The POTASSIUM was 6.96 MEQ/L.

And the SODIUM [2]?
Its SODIUM is 141.63 MEQ/L.

And the “TOTAL BILIRUBIN” value [2]?
The value was 0.23 mg/dL.

And the “TOTAL PROTEIN” value [2]?
Its value is 5.77 G/DL.

What about the “URIC ACID” value [2] of the same molecule?
The value was 1.4 mg/dL.

What about the “ABSOLUTE BASOPHIL” value [3] of the same molecule?
Its value is 0 CELLS/uL.

And the “ABSOLUTE EOSINOPHIL” value [3]?
The value was 0 CELLS/uL.

What about the “ABSOLUTE LYMPHOCYTE” value [3] of the same molecule?
The value was 16336 CELLS/uL.

And the “ABSOLUTE MONOCYTE” value [3]?
The value was 67.33 CELLS/uL.

And the “ABSOLUTE SEGMENTED NEUTROPHIL” value [3]?
Its value is 1396.67 CELLS/uL.

And the BASOPHIL [3]?
The BASOPHIL was 0%.

And the EOSINOPHIL [3]?
Its EOSINOPHIL is 0%.

And the “ERYTHROCYTE COUNT” value [3]?
The value was 5.64 x10E6/uL.

What about the HEMATOCRIT [3] of the same molecule?
The HEMATOCRIT was 35.9%.

What about the HEMOGLOBIN [3] of the same molecule?
Its HEMOGLOBIN is 14.27 G/DL.

And the “LEUKOCYTE COUNT” value [3]?
The value was 17.8 x10E3/uL.

What about the LYMPHOCYTE [3] of the same molecule?
Its LYMPHOCYTE is 92%.

What about the “MEAN CORPUSCULAR HEMOGLOBIN” value [3] of the same molecule?
The value was 25.3 pg.

And the “MEAN CORPUSCULAR HEMOGLOBIN CONCENTRATION” value [3]?
The value was 39.77 G/DL.

What about the “MEAN CORPUSCULAR VOLUME” value [3] of the same molecule?
The value was 63.6 fL.

What about the MONOCYTE [3] of the same molecule?
Its MONOCYTE is 0.33%.

And the NEUTROPHIL [3]?
The NEUTROPHIL was 7.67%.

What about the “NUCLEATED RED BLOOD CELLS” value [3] of the same molecule?
Its value is 0 /100WBC.

What about the “PLATELET COUNT” value [3] of the same molecule?
Its value is 1293.33 x10E3/uL.

What about the “ALANINE AMINOTRANSFERASE” value [3] of the same molecule?
The value was 45.33 u/L.

And the ALBUMIN [3]?
The ALBUMIN was 4.33 G/DL.

What about the “ALKALINE PHOSPHATASE” value [3] of the same molecule?
The value was 338.33 u/L.

And the “ASPARTATE AMINOTRANSFERASE” value [3]?
Its value is 85 u/L.

What about the “BLOOD UREA NITROGEN” value [3] of the same molecule?
Its value is 15.67 mg/dL.

And the “CARBON DIOXIDE” value [3]?
The value was 30 mmol/L.

And the CHLORIDE [3]?
Its CHLORIDE is 100.67 MEQ/L.

What about the CHOLESTEROL [3] of the same molecule?
Its CHOLESTEROL is 76 mg/dL.

What about the “CREATINE PHOSPHOKINASE” value [3] of the same molecule?
The value was 311.33 u/L.

What about the CREATININE [3] of the same molecule?
The CREATININE was 0.22 mg/dL.

What about the GLUCOSE [3] of the same molecule?
The GLUCOSE was 154.33 mg/dL.

What about the “LACTATE DEHYDROGENASE” value [3] of the same molecule?
Its value is 98 u/L.

What about the LIPASE [3] of the same molecule?
Its LIPASE is 9 u/L.

And the PHOSPHORUS [3]?
The PHOSPHORUS was 11.73 mg/dL.

What about the POTASSIUM [3] of the same molecule?
Its POTASSIUM is 6.62 MEQ/L.

And the SODIUM [3]?
Its SODIUM is 145.9 MEQ/L.

And the “TOTAL BILIRUBIN” value [3]?
The value was 0.27 mg/dL.

What about the “TOTAL PROTEIN” value [3] of the same molecule?
Its value is 6.1 G/DL.

What about the “URIC ACID” value [3] of the same molecule?
Its value is 1.9 mg/dL.
